Assays:
[1] = molecular target: T1, CRBN and Helios (IKZF2) (Homo sapiens, UniProt Q96SW2+Q9UKS7); assay: TR-FRET dimerization assay (CRBN-IKZF2 ternary complex formation); assay type: binding; conditions: n=1
T1 construct: His (N); Strep (N)
Method in brief: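 Compound-induced IKZF2 recruitment to CRBN was read as the 520/490 nm TR-FRET ratio after 15 min at rt. The mix held biotinylated IKZF2, BODIPY-labeled CRBN bound to DDB1 lacking the BPB propeller, tracer Tb-streptavidin and compound titrations; n=1, from ≥3 technical replicates per well.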

[2] = system: IKZF2; assay: Cellular degradation assay, eGFP-IKZF2Δ fusion with mCherry reporter in Flp-In 293 cells; assay type: cell-based; conditions: 5 h incubation, n=1
Method in brief: (§1)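 DC50,5 h derived by variable-slope nonlinear fit of the per-well ratio of GFP-positive to mCherry-positive cells, imaged after 5 h compound exposure at 0.5% DMSO.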

[3] = molecular target: T2, IKZF1 (Homo sapiens, UniProt Q13422); assay: Cellular degradation assay, eGFP-IKZF1Δ fusion with mCherry reporter in Flp-In 293 cells; assay type: cell-based; conditions: 5 h incubation, n=1
T2 construct: expressed in transfected cells; host or cells: Flp-In 293
T2 sequence (Q13422 83-213 isoform Q13422-7 limits assumed): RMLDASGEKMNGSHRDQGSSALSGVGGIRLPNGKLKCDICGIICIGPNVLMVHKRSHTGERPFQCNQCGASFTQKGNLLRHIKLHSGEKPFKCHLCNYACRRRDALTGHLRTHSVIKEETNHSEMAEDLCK
T2 sequence (Q96SW2 whole entry partner, the tested form may be a part): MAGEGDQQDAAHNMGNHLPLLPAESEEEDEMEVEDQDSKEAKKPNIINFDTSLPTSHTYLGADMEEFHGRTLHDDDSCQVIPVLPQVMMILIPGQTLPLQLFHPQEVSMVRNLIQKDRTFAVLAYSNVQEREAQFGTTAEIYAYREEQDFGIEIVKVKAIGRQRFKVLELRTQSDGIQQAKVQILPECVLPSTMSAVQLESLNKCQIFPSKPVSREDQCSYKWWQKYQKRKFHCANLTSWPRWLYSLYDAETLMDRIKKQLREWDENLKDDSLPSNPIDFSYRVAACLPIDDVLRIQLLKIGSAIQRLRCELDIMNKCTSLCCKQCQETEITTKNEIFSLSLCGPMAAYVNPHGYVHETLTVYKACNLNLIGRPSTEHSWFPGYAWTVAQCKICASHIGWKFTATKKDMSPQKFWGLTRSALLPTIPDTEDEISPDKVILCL
T2 sequence (Q16531 2-1140 partner limits assumed): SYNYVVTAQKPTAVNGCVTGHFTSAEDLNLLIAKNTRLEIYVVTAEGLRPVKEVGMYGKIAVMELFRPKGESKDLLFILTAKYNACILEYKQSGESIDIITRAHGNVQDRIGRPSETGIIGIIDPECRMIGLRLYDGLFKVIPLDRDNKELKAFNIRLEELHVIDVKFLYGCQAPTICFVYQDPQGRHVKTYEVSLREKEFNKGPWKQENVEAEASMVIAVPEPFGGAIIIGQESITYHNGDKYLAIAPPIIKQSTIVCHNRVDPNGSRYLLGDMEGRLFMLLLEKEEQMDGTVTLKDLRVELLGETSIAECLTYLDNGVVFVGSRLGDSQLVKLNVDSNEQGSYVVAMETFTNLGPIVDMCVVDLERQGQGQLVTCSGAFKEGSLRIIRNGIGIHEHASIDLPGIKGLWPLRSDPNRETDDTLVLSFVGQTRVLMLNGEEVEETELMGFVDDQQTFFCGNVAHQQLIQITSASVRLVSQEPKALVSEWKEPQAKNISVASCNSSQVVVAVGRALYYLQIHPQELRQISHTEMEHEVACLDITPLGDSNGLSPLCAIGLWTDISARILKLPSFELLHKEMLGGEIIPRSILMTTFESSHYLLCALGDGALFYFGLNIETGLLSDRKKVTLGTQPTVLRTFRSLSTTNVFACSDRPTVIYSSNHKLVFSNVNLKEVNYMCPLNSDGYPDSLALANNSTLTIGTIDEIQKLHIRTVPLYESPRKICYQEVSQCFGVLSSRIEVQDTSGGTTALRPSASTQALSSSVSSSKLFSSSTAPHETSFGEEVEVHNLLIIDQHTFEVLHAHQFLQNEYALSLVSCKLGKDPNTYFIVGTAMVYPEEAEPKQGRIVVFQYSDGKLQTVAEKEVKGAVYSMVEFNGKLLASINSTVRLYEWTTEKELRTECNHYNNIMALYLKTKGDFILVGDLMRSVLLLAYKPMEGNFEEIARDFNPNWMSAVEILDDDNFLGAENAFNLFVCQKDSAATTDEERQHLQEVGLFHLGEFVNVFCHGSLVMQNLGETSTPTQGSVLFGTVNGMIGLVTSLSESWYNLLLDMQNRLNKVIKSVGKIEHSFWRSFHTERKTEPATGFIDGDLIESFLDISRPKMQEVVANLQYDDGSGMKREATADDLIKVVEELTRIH
Method in brief: as §1

[4] = molecular target: T3, SALL4 ZNF1-2 (Homo sapiens, UniProt Q96SW2+Q9UJQ4); assay: Cellular degradation assay, eGFP-SALL4 ZnF1-2 fusion with mCherry reporter in Flp-In 293 cells; assay type: cell-based; conditions: 5 h incubation, n=1
T3 construct: IKZF1Δ, IKZF2Δ, GSPT1 and SALL4 ZnF1-2 were subcloned; expressed in transfected cells; host or cells: Flp-In 293
T3 sequence (Q9UJQ4 378-438 limits assumed): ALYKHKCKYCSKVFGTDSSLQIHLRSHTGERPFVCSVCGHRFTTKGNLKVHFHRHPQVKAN
T3 sequence (Q96SW2 whole entry, the tested form may be a part): as the sequence (Q96SW2 whole entry partner, the tested form may be a part) above
T3 sequence (Q16531 whole entry partner, the tested form may be a part): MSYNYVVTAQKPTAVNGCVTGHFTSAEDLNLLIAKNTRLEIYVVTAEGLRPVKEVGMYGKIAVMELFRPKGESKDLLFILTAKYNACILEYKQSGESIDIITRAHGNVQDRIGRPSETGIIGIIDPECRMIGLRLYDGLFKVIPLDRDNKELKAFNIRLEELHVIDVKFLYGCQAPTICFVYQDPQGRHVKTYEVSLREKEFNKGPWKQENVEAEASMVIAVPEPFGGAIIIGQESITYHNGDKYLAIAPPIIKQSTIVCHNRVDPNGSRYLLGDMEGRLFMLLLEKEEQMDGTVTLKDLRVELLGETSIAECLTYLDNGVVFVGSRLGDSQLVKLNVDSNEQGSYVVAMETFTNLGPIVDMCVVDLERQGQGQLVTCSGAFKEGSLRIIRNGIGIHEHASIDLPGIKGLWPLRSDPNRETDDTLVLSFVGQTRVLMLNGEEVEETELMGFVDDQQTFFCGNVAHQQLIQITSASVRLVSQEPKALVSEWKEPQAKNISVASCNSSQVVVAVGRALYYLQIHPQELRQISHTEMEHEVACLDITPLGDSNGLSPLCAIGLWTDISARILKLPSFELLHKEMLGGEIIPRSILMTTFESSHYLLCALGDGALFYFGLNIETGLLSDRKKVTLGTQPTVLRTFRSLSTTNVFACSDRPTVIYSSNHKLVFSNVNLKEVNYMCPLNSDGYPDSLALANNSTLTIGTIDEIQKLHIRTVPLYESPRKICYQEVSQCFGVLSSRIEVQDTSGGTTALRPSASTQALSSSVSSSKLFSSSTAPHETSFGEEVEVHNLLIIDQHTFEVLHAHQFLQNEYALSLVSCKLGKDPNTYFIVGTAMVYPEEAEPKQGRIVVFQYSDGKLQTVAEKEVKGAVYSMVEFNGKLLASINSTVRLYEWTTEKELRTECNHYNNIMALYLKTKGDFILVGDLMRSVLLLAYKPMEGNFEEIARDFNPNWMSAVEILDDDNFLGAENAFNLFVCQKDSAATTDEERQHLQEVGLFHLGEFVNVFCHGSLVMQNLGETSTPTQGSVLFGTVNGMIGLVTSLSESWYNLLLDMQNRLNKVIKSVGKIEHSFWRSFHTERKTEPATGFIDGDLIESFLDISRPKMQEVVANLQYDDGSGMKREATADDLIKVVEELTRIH
Procedure: IKZF1Δ, IKZF2Δ, GSPT1 and SALL4 ZnF1-2 were subcloned into mammalian pcDNA5/FRT Vector (Ampicillin and Hygromycin B resistant) modified to contain MCS-eGFP-P2A-mCherry. Stable cell lines expressing eGFP-protein fusion and mCherry reporter were generated using Flp-In™ 293 system. Plasmid (0.3 μg) and pOG44 (4.7 μg) DNA were preincubated in 100 μL of Opti-MEM® I (Gibco®, Life Technologies™) media containing 0.05 mg/mL Lipofectamine® 2000 (Invitrogen™) for 20 min and added to Flp-In™ 293 cells containing 1.9 ml of DMEM media (Gibco®, Life Technologies™) per well in a 6-well plate format (Falcon, 353046). Cells were propagated after 48 h and transferred into a 10 cm^2 plate (Corning, 430165) in DMEM media containing 50 μg/mL of Hygromycin B (REF 10687010, Invitrogen™) as a selection marker. Following 2-3 passage cycle, FACS (FACSAria™ II, BD) was used to enrich for cells expressing eGFP and mCherry. Cells stably expressing the IKZF1Δ, IKZF2Δ, GSPT1 or SALL4 Znf1-2 GFP fusions with mCherry reporter were seeded at 30-50% confluency in 384-well plates with 50 μL FluoroBrite™ DMEM media (Thermo Fisher Scientific, A18967) containing 10% FBS per well a day before compound treatment. Compound titrations were dispensed using a D300e Digital Dispenser (HP), normalized to 0.5% DMSO, and incubated with cells for 5 hours. The assay plate was imaged immediately using an Acumen® High Content Imager (TTP Labtech) with 488 nm and 561 nm lasers in […] grid per well format.
The resulting images were analyzed using CellProfiler™. A series of image analysis steps (‘image analysis pipeline’) was constructed. First, the red and green channels were aligned and cropped to target the middle of each well (to avoid analysis of heavily clumped cells at the edges), and a background illumination function was calculated for both red and green channels of each well individually and subtracted to correct for illumination variations across the 384-well plate from various sources of error. An additional step was then applied to the green channel to suppress the analysis of large auto fluorescent artifacts and enhance the analysis of cell specific fluorescence by way of selecting for objects under a given size, 30 A.U., and with a given shape, speckles. mCherry-positive cells were then identified in the red channel filtering for objects between 8-60 pixels in diameter and using intensity to distinguish between clumped objects. The green channel was then segmented into GFP positive and negative areas and objects were labeled as GFP positive if at least 40% of it overlapped with a GFP positive area. The fraction of GFP-positive cells/mCherry-positive cells in each well was then calculated, and the green and red images were rescaled for visualization.

[5] = molecular target: GSPT1 (Homo sapiens, UniProt P15170+Q96SW2); assay: Cellular degradation assay, eGFP-GSPT1 fusion with mCherry reporter in Flp-In 293 cells; assay type: cell-based; design: expressed in transfected cells; host or cells: Flp-In 293; conditions: 5 h incubation, n=1
Sequence of GSPT1 (P15170 whole entry, the tested form may be a part): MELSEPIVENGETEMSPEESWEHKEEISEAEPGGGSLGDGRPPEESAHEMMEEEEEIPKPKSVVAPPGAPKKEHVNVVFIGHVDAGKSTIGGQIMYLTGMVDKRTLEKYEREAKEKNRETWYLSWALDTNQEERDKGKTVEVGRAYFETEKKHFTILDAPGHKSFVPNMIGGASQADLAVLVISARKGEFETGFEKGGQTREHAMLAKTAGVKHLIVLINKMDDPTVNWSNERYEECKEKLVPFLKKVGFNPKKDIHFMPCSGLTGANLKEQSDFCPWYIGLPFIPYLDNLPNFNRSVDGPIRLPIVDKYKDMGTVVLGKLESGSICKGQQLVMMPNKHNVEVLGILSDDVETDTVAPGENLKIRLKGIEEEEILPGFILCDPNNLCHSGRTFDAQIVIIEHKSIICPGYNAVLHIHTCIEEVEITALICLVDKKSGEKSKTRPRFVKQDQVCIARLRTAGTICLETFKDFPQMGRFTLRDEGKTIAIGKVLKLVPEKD
Sequence of GSPT1 (Q96SW2 whole entry, the tested form may be a part): as the sequence (Q96SW2 whole entry partner, the tested form may be a part) above
Sequence of GSPT1 (Q16531 whole entry partner, the tested form may be a part): as the sequence (Q16531 whole entry partner, the tested form may be a part) above
Method in brief: as §1

[6] = compound concentration 6.6667E−05
[7] = compound concentration 6.6667E−06
[8] = compound concentration 6.6667E−07 (667 nM)
[9] = compound concentration 2.00E−05
[10] = compound concentration 2.00E−06
[11] = compound concentration 2.00E−07

T1 sequence (Q96SW2 whole entry): as the sequence (Q96SW2 whole entry partner, the tested form may be a part) above
T1 sequence (Q9UKS7 whole entry): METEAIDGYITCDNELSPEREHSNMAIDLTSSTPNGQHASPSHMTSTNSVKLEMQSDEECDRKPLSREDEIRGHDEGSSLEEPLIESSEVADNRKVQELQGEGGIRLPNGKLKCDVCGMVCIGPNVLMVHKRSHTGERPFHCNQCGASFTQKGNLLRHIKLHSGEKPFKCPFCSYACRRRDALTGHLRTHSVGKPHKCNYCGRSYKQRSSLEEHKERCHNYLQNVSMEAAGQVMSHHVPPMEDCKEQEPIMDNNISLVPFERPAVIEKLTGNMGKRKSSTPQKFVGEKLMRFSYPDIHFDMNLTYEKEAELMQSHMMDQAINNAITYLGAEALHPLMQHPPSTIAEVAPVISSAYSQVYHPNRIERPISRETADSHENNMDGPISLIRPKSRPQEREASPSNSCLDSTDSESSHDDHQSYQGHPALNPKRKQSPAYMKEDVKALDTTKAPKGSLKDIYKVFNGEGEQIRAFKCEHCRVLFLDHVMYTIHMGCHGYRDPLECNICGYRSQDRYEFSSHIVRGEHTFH

SMILES	TR-FRET-IKZF2 (Normalized to CC-885) [1, 6]	TR-FRET-IKZF2 (Normalized to CC-885) [1, 7]	TR-FRET-IKZF2 (Normalized to CC-885) [1, 8]	IKZF2 GFP/RFP Relative Abundance [2, 9]	IKZF2 GFP/RFP Relative Abundance [2, 10]	IKZF2 GFP/RFP Relative Abundance [2, 11]	IKZF1 GFP/RFP Relative Abundance [3, 9]	IKZF1 GFP/RFP Relative Abundance [3, 10]	IKZF1 GFP/RFP Relative Abundance [3, 11]	SALL4 ZNF1-2 GFP/RFP Relative Abundance [4, 9]	SALL4 ZNF1-2 GFP/RFP Relative Abundance [4, 10]	SALL4 ZNF1-2 GFP/RFP Relative Abundance [4, 11]	GSPT1 GFP/RFP Relative Abundance [5, 9]	GSPT1 GFP/RFP Relative Abundance [5, 10]	GSPT1 GFP/RFP Relative Abundance [5, 11]
Cc1ccc(NC2=CC(=O)N(C3CCC(=O)NC3=O)C2=O)cc1Cl (stereo not drawn) [Compound 3, 3-(3-((3-chloro-4-methylphenyl)amino)-2,5-dioxo-2,5-dihydro-1H-pyrrol-1-yl)piperidine-2,6-dione]	0.357	0.267	0.253	1.032	0.973	0.979	0.242	0.370	0.349	0.914	0.884	0.879	1.204	1.006	1.190
O=C1CCC(N2C(=O)C=C(Nc3cccc(-c4nnn[nH]4)c3)C2=O)C(=O)N1 (stereo not drawn) [Compound 23, 3-(3-((3-(1H-tetrazol-5-yl)phenyl)amino)-2,5-dioxo-2,5-dihydro-1H-pyrrol-1-yl)piperidine-2,6-dione]	0.326	0.259	0.196	1.013	1.016	1.015	0.866	1.044	0.756	0.922	0.979	0.981	0.976	0.936	0.953
O=C1CCC(N2C(=O)C=C(Nc3ccc(-n4ccnc4)cc3)C2=O)C(=O)N1 (stereo not drawn) [Compound 29, 3-(3-((4-(1H-imidazol-1-yl)phenyl)amino)-2,5-dioxo-2,5-dihydro-1H-pyrrol-1-yl)piperidine-2,6-dione]	0.347	0.297	0.270	0.982	1.005	0.942	0.495	0.516	0.602	0.958	0.913	0.908	0.790	0.913	0.729
Cc1ccc(NC(=O)NCc2ccc(NC3=CC(=O)N(C4CCC(=O)NC4=O)C3=O)cc2)cc1Cl (stereo not drawn) [Compound 46, 1-(3-chloro-4-methylphenyl)-3-(4-((1-(2,6-dioxopiperidin-3-yl)-2,5-dioxo-2,5-dihydro-1H-pyrrol-3-yl)amino)benzyl)urea]	0.787	0.828	0.701	0.242	0.361	0.510	0.045	0.087	0.112	0.950	0.906	0.854	0.048	0.089	0.076
Cc1ccc(NC(=O)OCc2cccc(NC3=CC(=O)N(C4CCC(=O)NC4=O)C3=O)c2)cc1Cl (stereo not drawn) [Compound 48, 3-((1-(2,6-dioxopiperidin-3-yl)-2,5-dioxo-2,5-dihydro-1H-pyrrol-3-yl)amino)benzyl (3-chloro-4-methylphenyl)carbamate]	0.140	0.079	0.044	1.053	1.076	1.057	1.041	0.903	1.000				1.591	0.365	0.579
Cc1ccc(NC(=O)CCc2cccc(NC3=CC(=O)N(C4CCC(=O)NC4=O)C3=O)c2)cc1Cl (stereo not drawn) [Compound 53, N-(3-chloro-4-methylphenyl)-3-(3-((1-(2,6-dioxopiperidin-3-yl)-2,5-dioxo-2,5-dihydro-1H-pyrrol-3-yl)amino)phenyl)propanamide]	1.708	1.574	1.455	0.030	0.022	0.029	0.110	0.077	0.078				0.232	0.982	0.931

— patent publication US12227488B2, “Small molecule degraders of Helios and methods of use” (DANA-FARBER CANCER INSTITUTE, INC., priority 2018, dated 2025)
